Laboratory results: patent US4298739A, “Novel carbostyril derivatives” (priority 1977, dated 1981)

Key:
rabbit platelet [1] = experiment: Collagen-induced aggregation in rabbit platelets (AG-II Aggregometer); type: cell-based; conditions: Oryctolagus cuniculus, Platelet, read-out: Inhibition effect on collagen induced aggregation in rabbit platelet; for inhibition at 10 µM (stock): 10^-5 mole; for inhibition at 1 µM (stock): 10^-6 mole; for inhibition at 100 µM (stock): 10^-4 mole
Method: (§1) The platelet aggregation inhibitory effect is measured by using AG-II Aggregometer (manufactured by Bryston Manufacturing Co.). The blood sample used for the test is a 1/9 (by volume) mixture of sodium citrate and whole blood collected from rabbit. Said sample is subjected to 10-minute centrifugal separation at 1,000 r.p.m. to obtain a platelet rich plasma (PRP). The thus obtained PRP is separated, and the remaining blood sample is further subjected to 15-minute centrifugal separation at 3,000 r.p.m. to obtain a platelet poor plasma (PPP).
(§2) The number of platelets in the PRP is counted by the Brecher-Clonkite Method, and the PRP is diluted with the PPP to prepare a PRP sample with platelet concentration of 300,000/mm^3 for the adenosine diphosphate (ADP)-induced aggregation test. There is also prepared a PRP sample with platelet concentration of 450,000/mm^3 for the collagen-induced aggregation test.
(§3) 0.6 ml of said PRP sample is added into 0.01 ml of a solution of a test compound of a predetermined concentration and the mixture is placed in a 37° C. thermostat for one minute. Then 0.07 ml of an ADP or collagen solution is added to the mixture. Transmittance of this mixture is determined and the change of transmittance is recorded by using the aggregometer at stirrer speed of 1,100 r.p.m. In this test, Auren Beronal buffer (pH 7.35) is used for the preparation of the ADP or collagen solution. ADP is adjusted to a concentration of 7.5×10^-5 M, and the collagen solution is prepared by triturating 100 mg of collagen with 5 ml of said buffer and the supernatant is used as collagen inducer. Adenosine and acetylsalicylic acid are used as controls for the ADP-induced aggregation test and the collagen-induced aggregation test, respectively. The platelet aggregation inhibitory effect is measured in terms of percent inhibition with respect to the aggregation rate of the controls. The aggregation rate is calculated from the following formula:
(§4) Aggregation rate=(c-a)/(b-a)×100
(§5) b: transmittance of PRP containing a test compound and an aggregation inducer
(§6) The inhibitory effect of the tested compounds on collagen-induced aggregation in rabbit platelets is shown in Table 1, and such effect on ADP-induced aggregation is shown in Table 2. The compounds tested are as follows.

rabbit platelet [2] = experiment: ADP-induced aggregation in rabbit platelets (AG-II Aggregometer); type: cell-based; conditions: Oryctolagus cuniculus, Platelet, read-out: Inhibition effect on ADP-induced aggregation in rabbit platelet; for inhibition at 100 µM (stock): 10^-4 mole; for inhibition at 1 µM (stock): 10^-6 mole; for inhibition at 10 µM (stock): 10^-5 mole
Method: as §1, §2, §3, §4, §5, §6

[3] = Concentration in blood of male Wister rats; type: in vivo; conditions: 30 mg/kg water suspension; for Concentration in blood: Rat; for concentration at 1 h / concentration at 2 h / concentration at 4 h / concentration at 6 h / concentration at 12 h: rat, plasma, 30 mg/kg
Method: (§7) A water suspension of test compound was administered at the dose of 30 mg/kg to the overnight fasted male Wister rats and male beagle dogs, and after a predetermined period of time, blood was collected from said animals to obtain plasma. 2 to 3 Milliliters of 0.1 N-NaOH and 2 ml of CHCl3 were added to 1 ml of the obtained plasma, and the mixture was shaken and extracted in a shaker for 2 hours, and after centrifugal separation, the organic layer was washed with 2 ml of 0.1 N-HCl. This organic layer was then subjected to a freezing and thawing treatment, and after evaporating chloroform under nitrogen stream, the residue was redissolved in 100 μl of chloroform and spotted on a thin layer plate of "Silica Gel 60 F254 " manufactured by Merck & Co., Inc. This was developed in a chloroform: butanol mixed solvent (5:1) and determined by measuring the spots with same Rf value as the test compound according to the absorbance method by using Shimazu CS-910 Thin Layer Chromato-scanner,and therefrom the concentration (μg/ml) of test compound A in blood was determined.

[4] = Concentration in blood of male beagle dogs; type: in vivo; conditions: 30 mg/kg water suspension; for Concentration in blood: Beagle dog
Method: as §7

[5] = Acute toxicity test, oral administration to mice; type: in vivo; conditions: mouse, in vivo, Male mice
Method: The test compounds were administered orally to the mice and LD50 (mg/kg) of the compounds was determined.

Compound	inhibition at 10 µM (stock) (rabbit platelet [1])	inhibition at 1 µM (stock) (rabbit platelet [1])	inhibition at 100 µM (stock) (rabbit platelet [2])	inhibition at 1 µM (stock) (rabbit platelet [2])	Concentration in blood ([3]; 2 hr.)	Concentration in blood ([3]; 4 hr.)	concentration at 1 h [3]	Concentration in blood ([4]; 2 hr.)	concentration at 1 h ([4]; dog, plasma, 30 mg/kg, 1 hr.)	LD50 [5]	inhibition at 100 µM (stock) (rabbit platelet [1])	inhibition at 10 µM (stock) (rabbit platelet [2])	concentration at 2 h ([3]; 2 hr.)	concentration at 4 h ([3]; 4 hr.)	concentration at 6 h [3]	concentration at 12 h [3]	concentration at 6 h ([4]; dog, plasma, 30 mg/kg)	concentration at 8 h ([4]; dog, plasma, 30 mg/kg)	other results
CCOC(=O)CCCOc1ccc2c(c1)CCC(=O)N2 [compound 29, 6-(3-Ethoxycarbonylpropoxy)-3,4-dihydrocarbostyril, reference compound]	38%	8%	100%	10%	0 ng/mL	0 ng/mL	10 ng/mL	0 ng/mL	10 ng/mL	> 1000 mg/kg	–	–	–	–	–	–	–	–	Concentration in blood ([4]; 4 hr.): 0 ng/mL
CCN(C(=O)CCCOc1ccc2[nH]c(=O)ccc2c1)c1ccccc1 [compound 20, 6-[3-(N-Ethylanilinocarbonyl)propoxy]carbostyril]	76.3%	43.2%	82.5%	13.5%	–	–	950 ng/mL	–	320 ng/mL	> 1000 mg/kg	91.3%	31.7%	1370 ng/mL	920 ng/mL	460 ng/mL	280 ng/mL	80 ng/mL	50 ng/mL	–
CC1CCCCC1N(C)C(=O)CCCOc1ccc2[nH]c(=O)ccc2c1 (stereo not drawn) [compound 1, 6-{3-[N-Methyl-N-(2-methylcyclohexyl)aminocarbonyl]propoxy}carbostyril]	100%	100%	100%	42.4%	–	–	1050 ng/mL	–	280 ng/mL	> 1000 mg/kg	–	73%	1620 ng/mL	940 ng/mL	530 ng/mL	480 ng/mL	130 ng/mL	80 ng/mL	inhibition at 0.1 µM (stock) (rabbit platelet [1]; 10^-7 mole): 21.1%; inhibition at 0.1 µM (stock) (rabbit platelet [2]; 10^-7 mole): 4.3%; concentration at 2 h ([4]; dog, plasma, 30 mg/kg, 2 hr.): 310 ng/mL; concentration at 4 h ([4]; dog, plasma, 30 mg/kg, 4 hr.): 210 ng/mL; concentration at 12 h ([4]; dog, plasma, 30 mg/kg, 12 hr.): 50 ng/mL
CCOC(=O)CCCOc1ccc2[nH]c(=O)ccc2c1 [compound 34, 6-(3-Ethoxycarbonylpropoxy)carbostyril, reference compound]	86%	18%	100%	25%	0 ng/mL	0 ng/mL	10 ng/mL	0 ng/mL	–	> 1000 mg/kg	100%	90%	–	–	–	–	–	–	Concentration in blood ([4]; 1 hr.): 0 ng/mL
